Data as given in US20240300932A1, “N-PHENYLIMINE DERIVATIVE AND PREPARATION METHOD AND USE THEREOF” (Guizhou University, priority 2023, published 2024).

Key:
Test in all cases: Post-emergence herbicidal activity test (stem and leaf spray, pot culture)
Type in all cases: in vivo
Conditions in all cases: 3 weeks after spraying
[1] = tested on: Setaria viridis
Outline: (§1)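 Greenhouse pot-grown weeds (loam, pH 7) sprayed post-emergence at 2- to 3-leaf stage with acetone/Tween 80 formulation plus 1.5 liters/ha methyl oleate, at 10, 5 and 2.5 g/mu. Fresh-weight growth control rated 3 weeks later on 0–5 grade scale.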

[2] = tested on: Echinochloa crusgalli
Outline: as §1

[3] = tested on: Abutilon theophrasti
Outline: as §1

[4] = tested on: Portulaca oleracea
Outline: as §1

[5] = tested on: Amaranthus retroflexus
Outline: as §1

[6] = tested on: Trifoliumre pensL.
Outline: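 Rates of 10, 5 and 2.5 g/mu were applied in a single spray-tower treatment to 2–3-leaf plants, thinned to 10 per pot. Formulation: acetone solution, Tween 80, 1.5 L/ha methyl oleate synergist. Weed response assessed after 3 further greenhouse weeks; mean of three experiments.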

Cc1ccc(-c2noc(COc3cc(N4C(=O)C5=C(CCCC5)C4=O)c(F)cc3Cl)n2)c(Cl)c1 [Compound A15]
Post-emergence herbicidal activity, S. viridis (grade) ([1]; dosage 2.5 g/mu): 2 (Grade 2: the growth control rate is greater than or equal to 20% and less than 40%) | Post-emergence herbicidal activity, S. viridis (grade) ([1]; dosage 5 g/mu): 3 (Grade 3: the growth control rate is greater than or equal to 40% and less than 60%) | Post-emergence herbicidal activity, S. viridis (grade) ([1]; dosage 10 g/mu): 4 (Grade 4: the growth control rate is greater than or equal to 60% and less than 85%) | Post-emergence herbicidal activity, E. crusgalli (grade) ([2]; dosage 2.5 g/mu): 1 (Grade 1: the growth control rate is greater than or equal to 5% and less than 20%) | Post-emergence herbicidal activity, E. crusgalli (grade) ([2]; dosage 5 g/mu): 2 (Grade 2: the growth control rate is greater than or equal to 20% and less than 40%) | Post-emergence herbicidal activity, E. crusgalli (grade) ([2]; dosage 10 g/mu): 3 (Grade 3: the growth control rate is greater than or equal to 40% and less than 60%) | Post-emergence herbicidal activity, A. theophrasti (grade) ([3]; dosage 2.5 g/mu): 5 (Grade 5: the growth control rate is greater than or equal to 85%) | Post-emergence herbicidal activity, A. theophrasti (grade) ([3]; dosage 5 g/mu): 5 (Grade 5: the growth control rate is greater than or equal to 85%) | Post-emergence herbicidal activity, A. theophrasti (grade) ([3]; dosage 10 g/mu): 5 (Grade 5: the growth control rate is greater than or equal to 85%) | Post-emergence herbicidal activity, P. oleracea (grade) ([4]; dosage 2.5 g/mu): 5 (Grade 5: the growth control rate is greater than or equal to 85%) | Post-emergence herbicidal activity, P. oleracea (grade) ([4]; dosage 5 g/mu): 5 (Grade 5: the growth control rate is greater than or equal to 85%) | Post-emergence herbicidal activity, P. oleracea (grade) ([4]; dosage 10 g/mu): 5 (Grade 5: the growth control rate is greater than or equal to 85%) | Post-emergence herbicidal activity, A. retroflexus (grade) ([5]; dosage 2.5 g/mu): 5 (Grade 5: the growth control rate is greater than or equal to 85%) | Post-emergence herbicidal activity, A. retroflexus (grade) ([5]; dosage 5 g/mu): 5 (Grade 5: the growth control rate is greater than or equal to 85%) | Post-emergence herbicidal activity, A. retroflexus (grade) ([5]; dosage 10 g/mu): 5 (Grade 5: the growth control rate is greater than or equal to 85%) | Post-emergence herbicidal activity, Trifoliumre pensL. (grade) ([6]; dosage 2.5 g/mu): 5 (Grade 5: the growth control rate is greater than or equal to 85%) | Post-emergence herbicidal activity, Trifoliumre pensL. (grade) ([6]; dosage 5 g/mu): 5 (Grade 5: the growth control rate is greater than or equal to 85%) | Post-emergence herbicidal activity, Trifoliumre pensL. (grade) ([6]; dosage 10 g/mu): 5 (Grade 5: the growth control rate is greater than or equal to 85%)
